Reference: the NIST ThermoML archive (doi:10.1016/j.jct.2017.05.022)
Numbers after ± are expanded uncertainties.

How the values were obtained:
[1] = Solid-liquid equilibrium temperature; conditions: Crystal, DTA
[2] = Molar enthalpy of transition or fusion; conditions: Crystal; DSC
[3] = for specific volume / mass density: 101.33 kPa; for specific volume: X-ray diffraction; for mass density: Liquid, Vibrating tube method

SMILES: O=C(OCCN1CCOCC1)c1cccnc1Nc1cccc(C(F)(F)F)c1
- Solid-liquid equilibrium temperature ([1]; 100 kPa): 348.1 ± 0.8 K
- Solid-liquid equilibrium temperature ([1]; 32000 kPa): 358.5 ± 3.1 K
- Solid-liquid equilibrium temperature ([1]; 58000 kPa): 366.9 ± 3.1 K
- Solid-liquid equilibrium temperature ([1]; 79000 kPa): 374.5 ± 3.1 K
- Solid-liquid equilibrium temperature ([1]; 115000 kPa): 382.7 ± 3.1 K
- Solid-liquid equilibrium temperature ([1]; 140000 kPa): 390.7 ± 3.1 K
- Solid-liquid equilibrium temperature ([1]; 155000 kPa): 396 ± 3.1 K
- Solid-liquid equilibrium temperature ([1]; 201000 kPa): 403.7 ± 3.1 K
- Solid-liquid equilibrium temperature ([1]; 244000 kPa): 421.5 ± 3.1 K
- Molar enthalpy of transition or fusion [2]: 8.45 ± 0.359 kcal/mol
- specific volume ([3]; 100 K, Crystal): 0.0006857 ± 1e-06 m3/kg
- specific volume ([3]; 125 K, Crystal): 0.0006872 ± 1e-06 m3/kg
- specific volume ([3]; 150 K, Crystal): 0.0006912 ± 1.1e-06 m3/kg
- specific volume ([3]; 175 K, Crystal): 0.000693 ± 1.1e-06 m3/kg
- specific volume ([3]; 200 K, Crystal): 0.0006968 ± 1.1e-06 m3/kg
- specific volume ([3]; 225 K, Crystal): 0.0006995 ± 1.1e-06 m3/kg
- specific volume ([3]; 250 K, Crystal): 0.0007035 ± 1.1e-06 m3/kg
- specific volume ([3]; 273 K, Crystal): 0.0007063 ± 1.1e-06 m3/kg
- specific volume ([3]; 298.2 K, Crystal): 0.0007115 ± 1.1e-06 m3/kg
- specific volume ([3]; 315 K, Crystal): 0.0007135 ± 1.1e-06 m3/kg
- specific volume ([3]; 320 K, Crystal): 0.0007145 ± 1.1e-06 m3/kg
- mass density ([3]; 323.15 K): 1262.9 ± 0.5 kg/m3
- specific volume ([3]; 325 K, Crystal): 0.0007147 ± 1.1e-06 m3/kg
- mass density ([3]; 325.65 K): 1260.6 ± 0.5 kg/m3
- mass density ([3]; 328.15 K): 1258.4 ± 0.5 kg/m3
- specific volume ([3]; 330 K, Crystal): 0.0007156 ± 1.1e-06 m3/kg
- mass density ([3]; 330.65 K): 1256.2 ± 0.5 kg/m3
- specific volume ([3]; 332 K, Crystal): 0.0007166 ± 1.1e-06 m3/kg
- mass density ([3]; 333.15 K): 1254 ± 0.5 kg/m3
- specific volume ([3]; 335 K, Crystal): 0.0007171 ± 1.1e-06 m3/kg
- mass density ([3]; 335.15 K): 1252.2 ± 0.5 kg/m3
- specific volume ([3]; 337 K, Crystal): 0.0007171 ± 1.1e-06 m3/kg
- mass density ([3]; 337.65 K): 1249.9 ± 0.5 kg/m3
- specific volume ([3]; 340 K, Crystal): 0.0007177 ± 1.1e-06 m3/kg
- mass density ([3]; 340.15 K): 1247.7 ± 0.5 kg/m3
- specific volume ([3]; 342 K, Crystal): 0.0007184 ± 1.1e-06 m3/kg
- mass density ([3]; 342.65 K): 1245.4 ± 0.5 kg/m3
- mass density ([3]; 345.15 K): 1243.2 ± 0.4 kg/m3
- specific volume ([3]; 347 K, Crystal): 0.0007192 ± 1.1e-06 m3/kg
- mass density ([3]; 347.65 K): 1240.9 ± 0.4 kg/m3
- mass density ([3]; 350.15 K): 1238.7 ± 0.4 kg/m3
- mass density ([3]; 352.65 K): 1236.4 ± 0.4 kg/m3
- mass density ([3]; 355.16 K): 1234.2 ± 0.4 kg/m3
- mass density ([3]; 357.65 K): 1231.9 ± 0.4 kg/m3
- mass density ([3]; 360.15 K): 1229.7 ± 0.4 kg/m3
- mass density ([3]; 362.65 K): 1227.4 ± 0.4 kg/m3
- Normal melting temperature ([3]; Crystal, DTA): 75.0 ± 0.9 °C
- Glass transition temperature ([3]; Glass, DSC): -23.7 ± 1.2 °C
